Among the test systems are A549; ACHN; CAKI-1; HCT-116; HOP-92; Hs-578T; MCF7; MDA-MB-435; NCI-H23; NCI-H522; NCI/ADR-RES; OVCAR-5; OVCAR-8; SK-MEL-28; SN12C; SNB-75; SW-620; TK-10; UACC-257; UACC-62.
Holding throughout (test): NCI-60 cell line screen, 48 h

Data on 9 compounds can be found in ChEMBL document CHEMBL1201862, “PubChem BioAssay data set” (2004).

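All cell lines were grown in 96-well plates and treated with compound for 48 hours. The concentration for 50% growth inhibition is given as GI50.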 Active and inactive are the calls of the source. Cut-off read from the data, not from the text of the source: active = GI50 up to about 1.1 µM and inactive = higher.

Take `C=CC1=C(C)c2cc3[nH]c(c4c5nc(cc6[nH]c(cc1n2)c(C)c6CC)C(C)=C5C(=O)[C@@H]4C(=O)OC)[C@@H](CCC(=O)O)[C@@H]3C`: the GI50 in the assay on A549 was 3.95 µM (inactive); in the assay on ACHN, 2.27 µM (inactive); in the assay on CAKI-1, 9.51 µM (inactive); with HCT-116 it was 8.71 µM (inactive); in the assay with HOP-92 it was 1.63 µM (inactive); in the assay on Hs-578T, 3.66 µM (inactive). Also, the GI50 in the assay with MCF7 is 2.98 µM (inactive); in the assay with MDA-MB-435 it was 2.24 µM (inactive); with NCI-H23, 2.21 µM (inactive); in the assay with NCI-H522 it was 7.57 µM (inactive); in the assay on NCI/ADR-RES, 9.02 µM (inactive); in the assay with OVCAR-5, 3.41 µM (inactive). For the same compound, the GI50 was 3.52 µM (inactive) in the assay on OVCAR-8; 1.64 µM (inactive) in the assay with SK-MEL-28; 5.45 µM (inactive) in the assay with SN12C; 2.11 µM (inactive) in the assay with SNB-75; 2.5 µM (inactive) in the assay with SW-620; 2.82 µM (inactive) in the assay with TK-10. Further, the results for the GI50 in the assay on UACC-257 and in the assay with UACC-62 were 5.32 µM (inactive) and 2.16 µM (inactive), respectively.
Turning to `O=C(Nc1ccc2ncccc2c1)c1cc2c(cc1Cl)Sc1nccn1S2(=O)=O`, the GI50 in the assay with A549 is 17.5 µM (inactive); in the assay with ACHN, 31.2 µM (inactive); with CAKI-1, 22 µM (inactive); in the assay with HCT-116 it was 12.8 µM (inactive); in the assay on HOP-92 it was 27.7 µM (inactive); in the assay with Hs-578T, 31.2 µM (inactive). The GI50 with MCF7 was 6.12 µM (inactive); in the assay with MDA-MB-435 it was 4 µM (inactive); with NCI-H23, 15.6 µM (inactive); in the assay with NCI-H522 it was 8.97 µM (inactive); in the assay on NCI/ADR-RES, 19 µM (inactive); with OVCAR-5 it was 20.9 µM (inactive). The GI50 in the assay with OVCAR-8 was 16.5 µM (inactive); in the assay with SK-MEL-28, 18.4 µM (inactive); in the assay on SN12C, 17.5 µM (inactive); in the assay with SNB-75 it was 15.3 µM (inactive); in the assay with SW-620, 16 µM (inactive); in the assay on TK-10, 20.4 µM (inactive). The GI50 with UACC-257 is 20.1 µM (inactive); with UACC-62, 16.6 µM (inactive).
With `COc1cc2c(cc1OCCCC(=O)Nc1cc(C(=O)Nc3cc(C(=O)Nc4cc(C(=O)NCCCN(C)C)n(C)n4)n(C)n3)n(C)n1)N=CC1CCCN1C2=O` (stereo not given), the GI50 was 55.2 µM (inactive) in the assay with A549; 13.2 µM (inactive) with ACHN; 18.2 µM (inactive) in the assay on CAKI-1; 60.8 µM (inactive) in the assay with HCT-116; 4.68 µM (inactive) in the assay with HOP-92; 39.5 µM (inactive) in the assay with Hs-578T. Besides, the GI50 in the assay on MCF7 was 21.1 µM (inactive); with MDA-MB-435 it was 20.1 µM (inactive); in the assay with NCI-H23, 26.5 µM (inactive); in the assay with NCI-H522 it was 1.69 µM (inactive); in the assay with NCI/ADR-RES, 31.8 µM (inactive); with OVCAR-5, 32.6 µM (inactive). Moreover, the GI50 was 32 µM (inactive) in the assay with OVCAR-8; 13.4 µM (inactive) in the assay on SK-MEL-28; 21.1 µM (inactive) in the assay with SN12C; 27.9 µM (inactive) in the assay with SNB-75; 5.21 µM (inactive) in the assay on SW-620; 20.7 µM (inactive) in the assay on TK-10. Besides, the GI50 was 19 µM (inactive) with UACC-257 and 20.3 µM (inactive) in the assay with UACC-62.
Turning to `Brc1cccc(/C=C/CN2CCN(CCOC(c3ccccc3)c3ccccc3)CC2)c1`, the GI50 in the assay with A549 was 15.5 µM (inactive); in the assay on ACHN it was 17.5 µM (inactive); in the assay with CAKI-1 it was 15.9 µM (inactive); with HCT-116, 13.7 µM (inactive); in the assay with HOP-92, 6 µM (inactive); in the assay on Hs-578T it was 22.1 µM (inactive). In addition, the GI50 is 14.5 µM (inactive) in the assay with MCF7; 12.6 µM (inactive) in the assay with MDA-MB-435; 16.5 µM (inactive) in the assay on NCI-H23; 14.4 µM (inactive) in the assay with NCI-H522; 14.7 µM (inactive) in the assay on NCI/ADR-RES; 16.2 µM (inactive) in the assay with OVCAR-5. The GI50 with OVCAR-8 was 16.1 µM (inactive); in the assay with SK-MEL-28, 17.8 µM (inactive); in the assay with SN12C, 15 µM (inactive); with SNB-75, 6.08 µM (inactive); with SW-620 it was 17.8 µM (inactive); in the assay on TK-10, 19.3 µM (inactive). The values for the GI50 in the assay with UACC-257 and in the assay on UACC-62 were 17.9 µM (inactive) and 17.4 µM (inactive), respectively.
As for `CC(=O)O[C@H]1C(=O)[C@@]2(C)[C@H]([C@H](OC(=O)c3ccccc3)[C@]3(O)C[C@H](OC(=O)[C@H](O)[C@@H](NC(=O)c4ccccc4)c4cccc(N(C)C)c4)C(C)=C1C3(C)C)[C@]1(OC(C)=O)CO[C@@H]1C[C@@H]2O`, the GI50 is 0.314 µM (active) with A549; 0.7 µM (active) with ACHN; > 48.3 µM (inactive) in the assay on CAKI-1; 0.0174 µM (active) with HCT-116; 0.555 µM (active) with HOP-92; 0.0276 µM (active) with Hs-578T. For the same compound, the GI50 was 0.0164 µM (active) with MCF7; 0.00893 µM (active) in the assay with MDA-MB-435; 0.0755 µM (active) in the assay on NCI-H23; 0.0533 µM (active) in the assay on NCI-H522; > 28.2 µM (inactive) in the assay on NCI/ADR-RES; 0.157 µM (active) with OVCAR-5. In addition, the GI50 with OVCAR-8 is 0.155 µM (active); in the assay on SK-MEL-28 it was 0.575 µM (active); in the assay with SN12C, 0.041 µM (active); with SNB-75 it was 1.01 µM (active); in the assay with SW-620, 0.0409 µM (active); in the assay on TK-10, 1.41 µM (inactive). The GI50 in the assay on UACC-257 was 0.714 µM (active); in the assay with UACC-62, 0.254 µM (active).
`CCOC(=O)c1cc(C#N)[nH]c1-c1ccsc1`: the GI50 in the assay on A549 is 31.7 µM (inactive); in the assay with ACHN, 39.5 µM (inactive); with CAKI-1 it was 50.7 µM (inactive); with HCT-116, 38.4 µM (inactive); in the assay with HOP-92, 38.6 µM (inactive); with Hs-578T, 25.7 µM (inactive). The GI50 in the assay on MCF7 was 14.3 µM (inactive); in the assay with MDA-MB-435 it was 23.1 µM (inactive); with NCI-H23, 35.5 µM (inactive); in the assay with NCI-H522 it was 30.3 µM (inactive); in the assay on NCI/ADR-RES, 32.4 µM (inactive); in the assay with OVCAR-5 it was 34.8 µM (inactive). For the same compound, the GI50 is 36.6 µM (inactive) in the assay on OVCAR-8; 40.2 µM (inactive) in the assay with SK-MEL-28; 54.7 µM (inactive) with SN12C; 22.5 µM (inactive) in the assay on SNB-75; 31.3 µM (inactive) in the assay on SW-620; 38.5 µM (inactive) in the assay on TK-10. For the same compound, the values for the GI50 with UACC-257 and in the assay on UACC-62 were 36.2 µM (inactive) and 47.1 µM (inactive), respectively.
Turning to `O=c1[nH]nc(Cc2ccccc2)n1/N=C/c1c[nH]c2ccccc12`, the GI50 with A549 is 66.1 µM (inactive); in the assay with ACHN it was > 100 µM (inactive); in the assay on CAKI-1 it was 16.7 µM (inactive); with HCT-116 it was > 100 µM (inactive); in the assay on HOP-92, > 100 µM (inactive); with Hs-578T, 25.4 µM (inactive). For the same compound, the GI50 with MCF7 is > 100 µM (inactive); in the assay with MDA-MB-435, 81.7 µM (inactive); in the assay with NCI-H23, > 100 µM (inactive); with NCI-H522, 22.9 µM (inactive); with NCI/ADR-RES, 82.6 µM (inactive); in the assay with OVCAR-5, > 100 µM (inactive). For the same compound, the GI50 is > 100 µM (inactive) with OVCAR-8; > 100 µM (inactive) in the assay with SK-MEL-28; > 100 µM (inactive) in the assay on SN12C; 13.3 µM (inactive) in the assay with SNB-75; > 100 µM (inactive) with SW-620; 35.3 µM (inactive) in the assay with TK-10. Also, the GI50 in the assay on UACC-257 is 96.2 µM (inactive); in the assay on UACC-62, 41.6 µM (inactive).
For `COC(=O)C1=C(OC(=O)/C(=C/c2ccc(Cl)cc2Cl)c2ccc(Cl)cc2Cl)C(C(=O)OC)[C@@]2(O)[C@@H](C(=O)OC)[C@H](C)C[C@@H]1[C@@H]2C(=O)OC` (stereo not given in full), the GI50 was 13.5 µM (inactive) in the assay with A549; > 100 µM (inactive) in the assay on ACHN; > 100 µM (inactive) with CAKI-1; > 100 µM (inactive) with HCT-116; 22.9 µM (inactive) with HOP-92; > 100 µM (inactive) in the assay with Hs-578T. For the same compound, the GI50 is > 100 µM (inactive) in the assay on MCF7; > 100 µM (inactive) in the assay on MDA-MB-435; > 100 µM (inactive) with NCI-H23; 64.1 µM (inactive) in the assay on NCI-H522; > 100 µM (inactive) with NCI/ADR-RES; > 100 µM (inactive) in the assay on OVCAR-5. For the same compound, the GI50 in the assay on OVCAR-8 was 34.4 µM (inactive); with SK-MEL-28 it was > 100 µM (inactive); in the assay with SN12C, > 100 µM (inactive); in the assay with SNB-75 it was > 100 µM (inactive); in the assay with SW-620, > 100 µM (inactive); in the assay with TK-10, > 100 µM (inactive). Also, the GI50 is > 100 µM (inactive) in the assay with UACC-257 and 92.5 µM (inactive) with UACC-62.
As for `COc1ccc(OC)c(-c2cc(=O)c3c(OC)c(OC)c(OC)c(OC)c3o2)c1`, the GI50 with A549 is 28.5 µM (inactive); in the assay on ACHN it was 20.7 µM (inactive); with CAKI-1 it was 40.6 µM (inactive); in the assay with HCT-116, 27.6 µM (inactive); in the assay on HOP-92, 11.7 µM (inactive); in the assay on Hs-578T, 37.6 µM (inactive). Besides, the GI50 was 14.5 µM (inactive) with MCF7; 28 µM (inactive) in the assay with MDA-MB-435; 30.1 µM (inactive) with NCI-H23; 20 µM (inactive) in the assay on NCI-H522; 22.8 µM (inactive) in the assay with NCI/ADR-RES; 49.1 µM (inactive) in the assay on OVCAR-5. Further, the GI50 in the assay on OVCAR-8 is 25.7 µM (inactive); in the assay on SK-MEL-28 it was 40.1 µM (inactive); in the assay on SN12C, 27.9 µM (inactive); with SNB-75, 46.8 µM (inactive); with SW-620, 33 µM (inactive); with TK-10 it was 37.9 µM (inactive). For the same compound, the GI50 is 36.2 µM (inactive) in the assay with UACC-257 and 24.3 µM (inactive) in the assay with UACC-62.
